The text below walks through data of ChEMBL document CHEMBL1157309, “Sensitivity of cardiac background inward rectifying K+ outward current (IK1) to the alkaloids lepadiformines A, B, and C” (J Nat Prod, 2006).

Each structure is given as a SMILES string. Where a name gives a salt, the structure may show the parent alone. Active and inactive are the calls of the source. No cut-off for these calls is given here.

The nature of assay [1]: Inhibition of Kir channel in frog sino-atrial myocytes assessed as half-maximal response for blockade of barium and caesium-sensitive inward rectifying potassium outward current by whole cell patch clamp method. The class given is cell-based, Pelophylax lessonae, Cardiac atrium.
In assay [2] the test system is Pelophylax lessonae. Kind of assay: Inhibition of Kir channel in frog sino-atrial myocytes assessed as blockade of barium and caesium-sensitive inward rectifying potassium outward current potential at 4.1 uM by whole cell patch clamp method. The format is cell-based. Conditions: Cardiac atrium.
The test system of assay [3] is Pelophylax lessonae. Kind of assay: Inhibition of Kir channel in frog sino-atrial myocytes assessed as blockade of barium and caesium-sensitive inward rectifying potassium outward current potential at 2.5 uM by whole cell patch clamp method. The format is cell-based. Conditions: Cardiac atrium.
The subject of assay [4] is Pelophylax lessonae. The experiment in a line: Inhibition of Kir channel in frog sino-atrial myocytes assessed as blockade of barium and caesium-sensitive inward rectifying potassium outward current at 1.6 uM by whole cell patch clamp method. The class given is cell-based. Conditions: Cardiac atrium.
The subject of assay [5] is Pelophylax lessonae. Kind of assay: Inhibition of Kir channel in frog sino-atrial myocytes assessed as blockade of barium and caesium-sensitive inward rectifying potassium outward current by whole cell patch clamp method. The class given is cell-based. Conditions: Cardiac atrium.
Assay [6] concerns Pelophylax lessonae. Kind of assay: Inhibition of Kir channel in frog sino-atrial myocytes assessed as blockade of barium and caesium-sensitive inward rectifying potassium outward current potential at 3.3 uM by whole cell patch clamp method. The format is cell-based. The conditions noted are these: Cardiac atrium.

Consider `CCCC[C@@H]1CC[C@@H]2CCCC[C@]23CC[C@@H](CO)N13` [LEPADIFORMINE B HYDROCHLORIDE], for which the Kd in assay [1] stood at 1.56 µM. In addition, the outcome with Pelophylax lessonae [2] was Active. The inhibition in the assay with Pelophylax lessonae [3] came out at 54%.

As to `CCCCCC[C@@H]1CC[C@@H]2CCCC[C@]23CC[C@@H](CO)N13` [LEPADIFORMINE A HYDROCHLORIDE], the Kd in assay [1] came to 1.42 µM. In the assay on Pelophylax lessonae [4], the result was Active. Besides, the Activity result with Pelophylax lessonae [5] is “Dose-dependent effect”.

Turning to `CCCC[C@@H]1CC[C@@H]2CCCC[C@]23CCCN13`, the result in the assay with Pelophylax lessonae [6] was inactive. The inhibition in the assay on Pelophylax lessonae [3] stood at 8.4%.
